Test results: article PMC10224004, “Modulation of Distribution and Diffusion through the Lipophilic Membrane with Cyclodextrins Exemplified by a Model Pyridinecarboxamide Derivative” (Pharmaceutics, 2023)
Read-outs that look alike come from different tables or passages of the source.

Assays:
[1] = Shake-flask solubility in 1-octanol and dissolution thermodynamics; format: physicochemical; conditions: for solubility higher in 1-octanol than in n-hexane: 310.2 K, ratio of molar solubilities
Procedure: (§1) The solubility of the investigated drugs in 1-octanol and n-hexane was determined by the shake-flask technique. To this end, the glass vials containing the solutions with the excess amount of the compound were placed in an air thermostat and stirred at a predetermined temperature for no less than 24 h (equilibrium state). After this, the suspensions were left for 5 h or more to precipitate the undissolved drug and centrifuged (Biofuge pico, Thermo Electron LED GmbH, Langenselbold, Germany) at a predetermined temperature during 20 min (10,000 rpm). The aliquots of the clear solutions were taken and examined via a spectrophotometer (Cary-50 Varian, Palo Alto, CA, USA, Software Version 3.00 (339)). The molar concentrations of the compounds in the solvents were calculated using calibration curves at the appropriate wavelength characteristic for each substance. The experimental results were reported as an average of at least three replicated experiments with an accuracy of 2–4%. In order to evaluate the thermodynamic parameters of the IPN dissolution in 1-octanol and n-hexane, the molar solubility ( S2 ) was recalculated to the mole fraction ( X2 ) by the equation:(1) X2=M2S2/S2(M1−M2)+1000ρ, where M1 and M2 are the molar masses of IPN and organic solvent, respectively, and ρ (g∙cm^−3) is the density of the pure solvents. The linear functions describing the temperature dependences of the solubility within the temperature interval from 293.2 ± 0.5 K to 313.2 ± 0.5 K for both organic solvents were derived:(2) lnX2=A+B/T
(§2) The apparent solution enthalpies ΔHsol0 were determined by the van’t Hoff equation:(3) ∂(lnX2)/∂T=ΔHsol0/RT^2
(§3) The apparent dissolution Gibbs energies ( ΔGsol ) and entropies ( ΔSsol ) were calculated at a standard temperature of 298.2 K and 310.2 K:(4) ΔGsol298.2/310.2=−RT(lnX2298.2/310.2) (5) ΔGsol298.2/310.2=ΔHsol0−TΔSsol298.2/310.2 where R is the universal gas constant.

[2] = Shake-flask solubility in n-hexane and dissolution thermodynamics; format: physicochemical; conditions: T 310.2 K; value = S2 × 10^3
Procedure: as §1, §2, §3

[3] = Shake-flask distribution in the 1-octanol/buffer pH 7.4 system; format: physicochemical; conditions: for Dappoct/buff / logDappoct/buff: 310.2 K, cyclodextrin in buffer phase as in the label; for Molar concentration C2 buf/oct ∙10^3 (aqueous phase) / Molar concentration C2 oct/buf ∙10^3 (organic phase): V(oct):V(buf)= 3:3, molar concentration × 10^3
Procedure: (§4) Apparent distribution coefficients of the compounds were measured in two systems: 1-octanol/buffer pH 7.4 and n-hexane/buffer pH 7.4 by the shake-flask technique at 310.2 ± 0.5 K in the absence (for IPN, INZ and iNAM) and in the presence of cyclodextrins (HP-β-CD and M-β-CD) in the aqueous phase (for IPN only). The concentrations of cyclodextrins were: 0.0115 M, 0.025 M and 0.035 M. The experiments were carried out according to the literature. In brief, the following experimental procedure was performed. Aqueous buffer pH 7.4 and organic solvent (1-octanol or n-hexane) were mixed during 48 h to obtain mutually saturated phases. The stock solutions containing the drug were prepared in buffer pH 7.4 saturated with the organic solvent. Both aliquots of the aqueous stock solution and organic solvent were placed in screwed glass vials and mixed at 310.2 ± 0.5 K during 3 days. The concentrations of the stock solutions were approximately 6.0 × 10^−3 M for both systems. The volumes of the phases were 3:3 in the 1-octanol/buffer pH 7.4 systems and 6:3 and 10:3 in the n-hexane/buffer pH 7.4 systems, without and with cyclodextrins, respectively. After mixing, the equilibrium was achieved; the vials were maintained at 310.2 ± 0.5 K, and the phases were separated from each other. The drug concentrations were determined using spectrophotometer (Cary-50 Varian, Palo Alto, CA, USA, Software Version 3.00 (339)). The experiments were carried out at least four-fold with an accuracy of 2–4%. The distribution coefficients were calculated using the following equation:(6) DappOrg/buf=C2Org/buf⋅V^buf/Org/C2buf/Org⋅V^Org/buf where DappOrg/buf is the distribution coefficient calculated from the concentrations of the compounds expressed in molar scale, C2Org/buf and C2buf/Org are the molar concentrations of the drug in the mutually saturated organic solvent/buffer and buffer/organic solvent phases, respectively, and V^buf/Org and V^Org/buf are the volumes of the saturated buffer and organic solvent phases, respectively. In addition, the ΔlogD parameters were estimated taking into account the distribution coefficients both in the 1-octanol/buffer pH 7.4 and n-hexane/buffer H 7.4 systems. As Abraham et al. stated, the difference between the distribution parameters in these systems ( ΔlogD ) can be applied to assess the specific interactions including a hydrogen-bonding impact to the drug transport properties and can be calculated as follows:(7) ΔlogD=logDappoct/buf−logDapphex/buf

[4] = Shake-flask distribution in the n-hexane/buffer pH 7.4 system; format: physicochemical; conditions: for logDapphex/buff / Dapphex/buff ·10^4: 310.2 K; for logDapphex/buff: cyclodextrin in buffer phase as in the label; for Dapphex/buff ·10^4: value = D·10^4, cyclodextrin in buffer phase as in the label; for Molar concentration C2 buf/hex ∙10^3 (aqueous phase): V(hex):V(buf)= 6:3 without and 10:3 with cyclodextrins, molar concentration × 10^3
Procedure: as §4

[5] = ΔlogD parameter (logDapp oct/buf − logDapp hex/buf); format: physicochemical; conditions: 310.2 K; pH 7.4; cyclodextrin in buffer phase as in the label
Procedure: as §4, with “The volumes of the phases were 3:3 in the 1-octanol/buffer pH 7.4 systems and 6:3 and 10:3 in the n-hexane/buffer pH 7.4 systems, without and with cyclodextrins, respectively. After mixing, the equilibrium was achieved; the vials were maintained at 310.2 ± 0.5 K, and the phases were separated from each other.” left out, “The experiments were carried out at least four-fold with an accuracy of 2–4%.” left out, “In addition, the ΔlogD parameters were estimated taking into account the distribution coefficients both in the 1-octanol/buffer pH 7.4 and n-hexane/buffer H 7.4 systems.” left out

[6] = set-up: method as in doi:10.1016/j.jct.2015.08.022; conditions: cited from earlier work
[7] = PermeaPad barrier, 310.2 K, cited from earlier work
[8] = Membrane permeability in Franz diffusion cell; format: in vitro ADME; conditions: 310.2 K
Procedure: Membrane permeability coefficients of the studied drugs were measured in the Franz diffusion cell of vertical type (PermeGear, Inc., Hellertown, PA, USA) with 7 mL/1 mL volumes of the donor and acceptor solutions through the reverse dialysis set up. The PermeaPad barrier (PHABIOC, Fritz-Souchon-Str.27 32339 Espelkamp Germany, www.innome.de) (0.785 cm^2 effective surface area) was mounted between the donor and acceptor chambers of the diffusion cell. The temperature was maintained at 310.2 ± 0.5 K throughout the experiment. Samples of 0.5 mL were withdrawn each 30 min from the acceptor solution and replaced with an equal amount of fresh buffer. Permeability experiments lasted over five hours in all cases. The solutions concentrations were analyzed via spectrophotometer (Spectramax 190; Molecular Devices Corporation, San Jose, CA, USA) in 96-well UV black plates (Costar) at a wavelength of 264 nm and 266 nm for IPN and INZ/iNAM, respectively. The dependences of the amount of the permeated drug over the surface area (dQ/A) on time (t) were plotted and flux (J) across the membrane was calculated by the equation:(11) J=dQ/A×dt The apparent permeability coefficients (Papp) were determined by normalizing the flux measured over the concentration of the drug in the donor compartment (C0) by the equation:(12) Papp=J/C0 Each permeability experiment was carried out in triplicate.
Similarly to the distribution, the permeability coefficients were obtained in the absence (for IPN, and iNAM) and in the presence of cyclodextrins (HP-β-CD and M-β-CD) (for IPN only) in the donor solution. The concentrations of cyclodextrins were 0.0115 M, 0.025 M and 0.035 M. The permeability coefficient for INZ through the PermeaPad barrier was determined in our previous investigation and taken in the present study for the sake of comparison.

| SMILES | solubility higher in 1-octanol than in n-hexane [1] | Molar solubility S2 × 10^3 in n-Hexane [2] | Dappoct/buff [3] | logDappoct/buff [3] | Molar concentration C2 buf/oct ∙10^3 (aqueous phase) [3] | Molar concentration C2 oct/buf ∙10^3 (organic phase) [3] | logDapphex/buff [4] | Dapphex/buff ·10^4 [4] | Molar concentration C2 buf/hex ∙10^3 (aqueous phase) [4] | ΔlogD [5] | TΔSsol298.2 ([6]; 1-octanol, 298.2 K) | ΔGsol298.2 ([6]; 1-octanol, 298.2 K) | ΔHsol298.2 ([6]; 1-octanol, 298.2 K) | Molar solubility S2 × 10^1 in 1-Octanol ([6]; T 310.2 K, value = S2 × 10^1) | Papp∙10^5 ([7]; pH 7.4, value = Papp × 10^5) | permeability coefficient (Papp) ([7]; without cyclodextrins) | Molar solubility S2 × 10^1 in 1-Octanol ([1]; T 310.2 K, value = S2 × 10^1) | steady penetrate rate - flux J∙10^4 ([8]; PermeaPad barrier, pH 7.4, printed value = J × 10^4, cyclodextrin in donor solution as in the label) | Papp∙10^5 ([8]; PermeaPad barrier, pH 7.4, value = Papp × 10^5, cyclodextrin in donor solution as in the label) | Papp at 5 h ([8]; pH 7.4, PermeaPad barrier, without cyclodextrins, read-out: permeability coefficient (Papp)) |
| --- | --- | --- | --- | --- | --- | --- | --- | --- | --- | --- | --- | --- | --- | --- | --- | --- | --- | --- | --- | --- |
| NNC(=O)c1ccncc1 [INZ, isonicotinic acid hydrazide] | 130 fold | 1.37 ± 0.05 × 10^3 (M) | 0.633 ± 0.021 | −0.199 | 5.31 ∙10^3 | 3.36 ∙10^3 | −3.083 | 8.254 ± 0.188 ·10^4 | 9.54 ∙10^3 | 2.88 | 2.56 kcal/mol | 3.32 kcal/mol | 5.88 kcal/mol | ^a 1.78 ± 0.04 × 10^1 (M) | 1.44±0.08 ∙10^5 (cm∙s‐1) | 14.4 ×10⁻⁶ cm/s | – | – | – | – |
| NC(=O)c1ccncc1 [iNAM, pyridine-4-carboxylic acid amide] | 115 fold | 1.10 ± 0.04 × 10^3 (M) | 0.446 ± 0.013 | −0.351 | 6.33 ∙10^3 | 2.83 ∙10^3 | −3.241 | 5.742 ± 0.172 ·10^4 | 8.64 ∙10^3 | 2.89 | – | – | – | – | – | – | 1.26 ± 0.02 × 10^1 (M) | 0.59 ∙10^4 (μM∙cm‐2∙s‐1) | 0.73±0.04 ∙10^5 (cm∙s‐1) | 7.3 ×10⁻⁶ cm/s |
